In the experiment the test system is DLD-1 parental cells. Put plainly: Cell growth inhibition assay (CellTiter-Glo), DLD-1 parental. It counts as cell-based. The note with it: Homo sapiens, DLD-1, 168 h; 7 days, CellTiter Glo 2.0. An excerpt:
The objective of this study is to evaluate the effect of compound disclosed herein on cell proliferation through the cell viability assay in DLD-1 BRCA2(−/−) and parental isogenic pair and MDA-MB-436 (mutated BRCA1) cell lines. The CellTiter-Glo (CTG) based cell viability assay is designed to determine the number of viable cells in the culture because of compound effect, by quantifying ATP, which indicates the presence of metabolically active cells.
DLD-1 BRCA2(−/−) and parental isogenic pair were cultured in RPMI 1640 supplemented with 10% fetal bovine serum (FBS), and MDA-MB-436 cells were cultured in DMEM supplemented with 10% FBS. Both are culture at 37° C. with 5% CO2. Invention compounds were distributed to the 384 well plate (Corning, 3764) using Echo acoustic liquid handler to form a 1:3 serially diluted final concentration with top dose of 10 or 30 μM. The cells were seeded into the plate in the density of 50 cells/well (DLD-1 parental), 200 cells/well (DLD-1 BRCA2−/−), or 500 cells/well (MDA-MB-436). After a short spun, the cells were cultured in a well moisturized incubator at 37° C. with 5% CO2 for 7 days without disturbance. The cell viability was measured by CellTiter Glo 2.0 assay kit (Promega, G9243), and growth inhibition rate was calculated and plotted against final compound concentration, and the data were fitted in Xfit to generate IC50.

pEC50: −log10 of the molar value. Bounds are passed on as bounds.

EC50 data for 1 molecule are collected here from patent US20230348473A1, “SUBSTITUTED PYRIDINES AS PARP1 INHIBITORS” (Xinthera, Inc., priority 2022, published 2023).

For orientation: pEC50 means the EC50 on a negative log10 scale, so that one unit is a factor of ten.

As to `[2H]C([2H])([2H])NC(=O)c1ccc(N2CCN(Cc3ccc4c5c(c(=O)[nH]c4c3F)CCO5)CC2)c(F)n1` [Example 22], the pEC50 was < 4.52.
